Like-named read-outs stand apart in the source and are kept apart here.
Experiments:
M1mAChR [1] = target: T1, M1mAChR (Homo sapiens, UniProt P11229); assay: cell-based; conditions: for EC50: HEK293T cells
T1 construct: host or cells: HEK-293T
Target sequence in this assay (P50148 whole entry partner, one chain of several): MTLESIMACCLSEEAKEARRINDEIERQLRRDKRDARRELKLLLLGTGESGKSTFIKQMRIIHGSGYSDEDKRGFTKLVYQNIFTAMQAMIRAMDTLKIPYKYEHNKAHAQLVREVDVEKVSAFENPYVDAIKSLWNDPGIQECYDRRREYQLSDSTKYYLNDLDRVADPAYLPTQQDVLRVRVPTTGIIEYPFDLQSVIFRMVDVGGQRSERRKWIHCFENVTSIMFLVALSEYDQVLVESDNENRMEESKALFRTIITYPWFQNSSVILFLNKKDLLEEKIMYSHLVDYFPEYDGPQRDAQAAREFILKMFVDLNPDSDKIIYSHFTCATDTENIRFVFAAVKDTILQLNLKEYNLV
Target sequence in this assay (P62879 2-340 partner limits assumed, one chain of several): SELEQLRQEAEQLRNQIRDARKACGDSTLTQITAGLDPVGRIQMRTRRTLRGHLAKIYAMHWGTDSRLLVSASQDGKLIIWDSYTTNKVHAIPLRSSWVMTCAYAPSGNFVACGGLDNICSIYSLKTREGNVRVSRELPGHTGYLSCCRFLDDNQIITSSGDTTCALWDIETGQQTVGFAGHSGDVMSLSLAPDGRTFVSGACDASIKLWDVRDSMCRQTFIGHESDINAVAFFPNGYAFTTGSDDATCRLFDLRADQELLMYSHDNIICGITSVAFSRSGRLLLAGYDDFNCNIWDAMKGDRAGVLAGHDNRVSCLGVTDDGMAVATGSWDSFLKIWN
Target sequence in this assay (P59768 2-68 partner limits assumed, one chain of several): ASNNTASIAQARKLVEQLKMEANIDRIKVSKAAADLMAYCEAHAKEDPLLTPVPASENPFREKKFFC

M1mAChR [2] = target: T1, M1mAChR; assay: cell-based
Target sequence in this assay (P32121 whole entry partner, one chain of several): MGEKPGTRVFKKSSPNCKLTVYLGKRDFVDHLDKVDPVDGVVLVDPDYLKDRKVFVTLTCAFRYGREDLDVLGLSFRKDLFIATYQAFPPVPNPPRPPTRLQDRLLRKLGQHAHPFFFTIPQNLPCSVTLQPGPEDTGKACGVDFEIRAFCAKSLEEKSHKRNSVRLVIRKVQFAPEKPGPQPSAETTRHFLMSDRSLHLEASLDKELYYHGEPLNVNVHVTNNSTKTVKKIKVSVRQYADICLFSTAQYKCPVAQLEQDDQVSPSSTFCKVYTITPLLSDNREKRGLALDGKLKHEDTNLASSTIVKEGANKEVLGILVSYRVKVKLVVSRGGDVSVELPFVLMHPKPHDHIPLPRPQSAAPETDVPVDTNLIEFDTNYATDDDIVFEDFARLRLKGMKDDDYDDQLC

M1mAChR [3] = target: T2, M1mAChR (Homo sapiens, UniProt P11229); assay: cell-based; conditions: for EC50: CHO-M1 cells, unit inferred, read-out: EC50, Fluo4-AM calcium, printed in Figure 6 panels B-G
T2 sequence (P11229 1-460): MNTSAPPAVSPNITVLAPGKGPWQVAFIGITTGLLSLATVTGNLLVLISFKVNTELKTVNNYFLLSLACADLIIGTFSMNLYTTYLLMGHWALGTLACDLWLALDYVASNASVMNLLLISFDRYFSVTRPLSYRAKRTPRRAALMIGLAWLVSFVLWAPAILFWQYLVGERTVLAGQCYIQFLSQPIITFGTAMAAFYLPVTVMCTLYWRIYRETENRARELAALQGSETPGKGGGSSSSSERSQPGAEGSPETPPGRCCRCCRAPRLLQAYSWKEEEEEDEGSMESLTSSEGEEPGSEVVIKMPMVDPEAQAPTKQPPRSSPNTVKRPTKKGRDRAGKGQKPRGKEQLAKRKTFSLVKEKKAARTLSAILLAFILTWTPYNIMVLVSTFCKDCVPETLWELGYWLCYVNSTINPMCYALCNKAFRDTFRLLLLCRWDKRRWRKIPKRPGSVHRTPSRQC
Experimental: The M1mAChR receptor primarily couples with Gαq, which connects it to several signaling pathways, such as PLC (phospholipase C, PLC), IP3 (inositol triphosphate, IP3), DAG (diacylglycerol, DAG), PKC (protein kinase C, PKC), and calcium signaling. Additionally, the Gαq-PLC signaling pathway plays a role in the activation of cAMP ([…], cAMP) via IP3-calcium release and calmodulin [9].
The influx of intracellular calcium was determined using Fluo4-AM (DOJINDO, Tonomachi, Japan, Cat. No.F311). CHO-M1 cells were seeded on 96-well plates at a density of 40,000 cells/well. The cells were treated with 5 µM of Fluo4-AM in 5 mM of CaCl2 buffer and incubated for 30 min at 37 °C in complete darkness.

M1mAChR [4] = target: T2, M1mAChR; assay: cell-based; conditions: for EC50: CHO-M1 cells, unit inferred, read-out: EC50, β-arrestin2 recruitment by FRET, printed in Figure 6 panels I-N
Experimental: To further analyze the signaling bias of the agonists, a β-arrestin recruitment kit was utilized based on HTRF (Homogeneous Time Resolved Fluorescence, HTRF) technology. The interaction between native β-arrestin2 and AP2 was detected using a Europium cryptate-labeled AP2 (Adaptin2, AP2) antibody (Europium donor) and a d2-labeled β-arrestin2 antibody (acceptor) (Figure 6H).
We used the β-arrestin2 recruitment KIT test (PerkinElmer, Waltham, MA, USA, Cat. No. 62BDBAR2PEB). Following 24 h of incubation, the cell culture medium was removed, and Stimulation Buffer 4 was added to the negative control group and the blank group, while a diluted agonist was added to the agonist group, at a volume of 100 µL for each group. The plates were then sealed and allowed to incubate at room temperature for 15 min. Then, we removed the Stimulation Buffer 4 from the wells and added 30 µL of Stabilization Buffer 1, sealed the plate, and incubated it at room temperature for 15 min. Afterward, Stabilization Buffer 1 was removed, and the wells were washed three times with 100 µL of Wash Buffer 1. Following that, 100 µL of pre-mixed d2 and Eu cryptate antibodies were added to the wells, and the plates were sealed and incubated overnight at room temperature. Finally, the plates were read using an HTRF-compatible reader.

M1mAChR [5] = target: T1, M1mAChR; format: cell-based; conditions: Scopolamine 100 μM; agonist 1 μM (Pilocarpine 300 μM); mean response 100 s before vs after antagonist
Experimental: (§1) Incubate the cells for another 24 h at 37 °C with 5% CO2 until the cell density reaches 70%~80%. To transfect the cells, use expression constructs (total 0.1 μg/well) with a 1:1:1:1 DNA ratio of M1-RLuc8/Gαq/Gβ2/Gγ2-mVenus, or a 1:2 DNA ratio of M1-RLuc8/β-arrestin2-mVenus, and LipofectamineTM 3000 (0.15 µL/well) reagents (Thermo Scientific, Waltham, MA, USA, Cat. No. R25001). Incubate the cells for another 24 h at 37 °C with 5% CO2. […] Then, add 10 µL of freshly prepared luciferase substrate (here, Coelenterazine h was added at a final concentration of 5 μM, Hangzi Biotechnology, Shanghai, China) and mix the solution.
Target sequence in this assay (P50148 whole entry partner, one chain of several): as the sequence (P50148 whole entry partner, one chain of several) above
Target sequence in this assay (P62879 2-340 partner limits assumed, one chain of several): as the sequence (P62879 2-340 partner limits assumed, one chain of several) above
Target sequence in this assay (P59768 2-68 partner limits assumed, one chain of several): as the sequence (P59768 2-68 partner limits assumed, one chain of several) above

M1mAChR [6] = target: T1, M1mAChR; format: cell-based
Experimental: The kinetic response of the agonists to β-arrestin recruitment was analyzed.
The mean response over 100 s before and after the injection of the antagonist was also analyzed.
as §1
Target sequence in this assay (P32121 whole entry partner, one chain of several): as the sequence (P32121 whole entry partner, one chain of several) above

M1mAChR [7] = target: T2, M1mAChR; format: cell-based; conditions: BRET assays
Experimental: The potencies and efficacies of Gαq and β-arrestin2 were verified using BRET assays, as well as commercial methods, to monitor G protein binding and β-arrestin recruitment (refer to Figure 7). […] The BRET concentration–response curves were analyzed by either conducting normalization to a reference agonist for each experiment or by analyzing them as raw net BRET (fit Emax-fit baseline). The EC50 and Emax values were estimated by fitting all biological replicates simultaneously. […] To estimate the putative signaling bias between the Gαq and β-arrestin pathways, the ΔΔlog(τ/KA) method was used, based on the following equation: bias = 10^ΔΔlog(τ/KA) Gαq−β-arrestin [46], which is derived from the RAi equation [29]. Here, ΔΔlog (τ/KA) Gαq−β-arrestin = Δlog(τ/KA) Gαq − Δlog(τ/KA) β-arrestin. For all statistically analyzed studies, the experiments were performed at least three times independently. The experiments were carried out in a randomized manner. The results are presented as the mean ± SEM. Statistical analysis was performed with a one-way analysis of variance (ANOVA). A value of p < 0.05 was considered statistically significant.

M1mAChR [8] = target: T2, M1mAChR; format: cell-based; conditions: calcium assay and commercial β-arrestin recruitment method
muscarinic = tested on: muscarinic; parameters: method as in PMID 22948826; conditions: times more potent than ACh; cited from earlier work
[9] = dose-response curve, unit inferred, read-out: EC50, Gαq interaction with M1mAChR (BRET), in Figure 2 panels
[10] = read-out: EC50, Gαq binding to M1mAChR (BRET)
[11] = dose-response curve, unit inferred, read-out: EC50, β-arrestin2 interaction with M1mAChR (BRET), Figure 4
[12] = read-out: EC50, β-arrestin2 binding to M1mAChR (BRET)
[13] = relative intrinsic activity, relative to ACh

Structure (SMILES) | EC50 (M1mAChR [1]; [9]) [nM] | EC50 (M1mAChR [1]; [10]) [nM] | EC50 (M1mAChR [2]; [11]) [nM] | EC50 (M1mAChR [2]; [12]) [nM] | EC50 (M1mAChR [3]) [nM] | EC50 (M1mAChR [4]) [nM] | Gαq (BRET) (Δlog (τ/KA)) (M1mAChR [1]; [13]) | β-Arrestin (BRET) (Δlog (τ/KA)) (M1mAChR [2]; [13]) | Gαq (Fluo4-AM) (Δlog (τ/KA)) (M1mAChR [3]; [13]) | β-Arrestin (FRET) (Δlog (τ/KA)) (M1mAChR [4]; [13]) | decrease of agonist-induced Gαq BRET response by Scopolamine (M1mAChR [5]) | decrease of agonist-induced β-arrestin2 BRET response by Atropine (M1mAChR [6]) [%] | decrease of agonist-induced β-arrestin2 BRET response by Scopolamine (M1mAChR [6]) [%] | ∆∆RAi (Gαq − β-arrestin2) (M1mAChR [7]) | bias factor (Gαq vs β-arrestin2) (M1mAChR [7]; bias = 10^ΔΔlog(τ/KA) Gαq−β-arrestin, relative to ACh) | signaling bias by commercial methods (M1mAChR [8]) | potency relative to ACh (muscarinic)
C[N+](C)(C)CC#CCOC(=O)Nc1cccc(Cl)c1 [McN-A-343] | 11.1 | 11 | 981 | 980 | 718 | 1550 | – | – | – | – | – | – | – | – | – | – | –
C[N+](C)(C)CC#CCOC1=NOCC1 [Iperoxo] | 24.8 | 24.8 | 72 | 72 | 12.5 | 646 | 1.56 ± 0.090 | 1.27 ± 0.020 | 0.98 ± 0.003 | −0.03 ± 0.040 | approximately 41% | 60 | 54 | 0.3 | 2 | predominantly biased towards Gαq | approximately 100 times

Source: PMC10138654, “Structural Insights into M1 Muscarinic Acetylcholine Receptor Signaling Bias between Gαq and β-Arrestin through BRET Assays and Molecular Docking” (International Journal of Molecular Sciences, 2023)
